Laboratory results taken from patent US20220135622A1, “ANTIBACTERIAL PEPTIDES AND METHODS OF USE” (priority 2019, published 2022).
In brackets after ≈: the same amount, converted by molar mass. Where two headings read alike, the source gives them in different places. Square brackets hold non-standard residues; d marks the D form. Peptide text beside a SMILES is read from it. Bip = N[C@@H](Cc1ccc(-c2ccccc2)cc1)C(=O)O; hhPhe = N[C@@H](CCCc1ccccc1)C(=O)O; hPhe = N[C@@H](CCc1ccccc1)C(=O)O; Ahp(2) = CCCCC[C@H](N)C(=O)O; Dap = NC[C@H](N)C(=O)O

Legend:
E. coli BW25113 = assay type: cell-based, Escherichia coli
Experimental: (§1) Bacterial growth conditions. LB or Mueller Hinton II cation-adjusted broth (MHB II, BBL 212322) was prepared according to manufacturer's instructions and supplemented with arabinose at 0.02% for overnight growth or at indicated concentrations in the description of the figures. Bacterial cultures were grown at 37° C. When appropriate, media was supplemented with kanamycin (50 μg/mL), carbenicillin (50 μg/mL), chloramphenicol (12.5 or 25 μg/mL), hygromycin (200 μg/mL), and/or gentamicin (10 μg/mL).
(§2) Peptide sensitivity and MIC assays. Lyophilized peptides (Smartox Biotechnology, CPC Scientific. ABclonal) were solubilized to 10 mM in Tris buffer, pH 8, prior to making a 2-fold dilution series in MHBII cation adjusted broth with highest final assay concentration of 400-800 μM. Bacteria were grown to log phase and added to final OD600˜0.001. The final EDTA concentration was 0.5 mM for E. coli strains and 0.125 mM for USA300. The final volume of 10 μL/well in a 384 well black, clear bottom plate (Corning) was spun <1 min at <250×g and then incubated at 37° C. After 4 h, an equal volume (10 μL) of BacTiter-Glo™ (Promega) was added to each well and luminescence was read after 5 min on an EnVision plate reader (PerkinElmer). To measure the minimal inhibitory concentrations (MICs), bacteria from fresh overnight plates or log phase cultures were diluted with or without EDTA and peptides as described above to final OD600˜0.0002. Plates were incubated at 37° C. for 20 h before measuring OD600 with an EnVision plate reader.

K. pneumoniae = assay type: cell-based, Klebsiella pneumoniae; conditions: Table 8
Experimental: as §1, §2

A. baumannii = assay type: cell-based, Acinetobacter baumannii; conditions: Table 8
Experimental: as §1, §2

P. aeruginosa = assay type: cell-based, Pseudomonas aeruginosa; conditions: Table 8
Experimental: as §1, §2

S. aureus USA300 = assay: MIC assay, S. aureus USA300; assay type: cell-based, Staphylococcus aureus; conditions: Table 7
Experimental: as §1, §2

E. coli imp4213 = assay: MIC assay, E. coli imp4213; assay type: cell-based, Escherichia coli; conditions: Table 7
Experimental: as §1, §2

| Compound | MIC S. aureus USA300 (S. aureus USA300) [µM] | MIC E. coli imp4213 (E. coli imp4213) [µM] | also measured |
| --- | --- | --- | --- |
| CSCC[C@H](NC(=O)[C@@H]1CCCN1C(=O)[C@H](Cc1ccc(O)cc1)NC(C)=O)C(=O)N[C@@H](CN)C(=O)N[C@@H](Cc1ccccc1)C(=O)N[C@@H](CCCNC(=N)N)C(=O)N[C@@H](CCCNC(=N)N)C(=O)N[C@@H](Cc1ccccc1)C(=O)N[C@@H](CC(C)C)C(=O)N[C@@H](CCC(=O)O)C(=O)N[C@@H](CCCCN)C(=O)N[C@@H](Cc1c[nH]c2ccccc12)C(=O)NCC(=O)N[C@@H](CC(C)C)C(=O)N[C@@H](CC(C)C)C(=O)N[C@@H](CCCNC(=N)N)C(N)=O [compound 69] (Ac-YPM[Dap]FRRFLEKWGLLR-NH2) |  |  | MIC E. coli BW25113 (E. coli BW25113; Table 8): 50 µM (≈ 107 µg/mL); MIC K. pneumoniae (K. pneumoniae): 100 µM (≈ 214 µg/mL); MIC A. baumannii (A. baumannii): 12.5 µM (≈ 26.7 µg/mL); MIC R. aeruginosa (P. aeruginosa): 200 µM (≈ 428 µg/mL) |
| CCCCC[C@H](NC(=O)[C@@H](NC(=O)[C@H](CCSC)NC(=O)[C@@H]1CCCN1C(=O)[C@H](Cc1ccc(O)cc1)NC(C)=O)[C@@H](C)O)C(=O)N[C@@H](CCCNC(=N)N)C(=O)N[C@@H](CCCNC(=N)N)C(=O)N[C@@H](Cc1ccccc1)C(=O)N[C@@H](CC(C)C)C(=O)N[C@@H](CCC(=O)O)C(=O)N[C@@H](CCCCN)C(=O)N[C@@H](Cc1c[nH]c2ccccc12)C(=O)NCC(=O)N[C@@H](CC(C)C)C(=O)N[C@@H](CC(C)C)C(=O)N[C@@H](CCCNC(=N)N)C(N)=O [compound 71] (Ac-YPMT[Ahp(2)]RRFLEKWGLLR-NH2) |  |  | MIC E. coli BW25113 (E. coli BW25113; Table 8): 100 µM (≈ 213 µg/mL); MIC K. pneumoniae (K. pneumoniae): 50 µM (≈ 107 µg/mL); MIC A. baumannii (A. baumannii): <6.25 µM; MIC R. aeruginosa (P. aeruginosa): 50 µM (≈ 107 µg/mL) |
| CC(=O)N[C@@H](CCCNC(=N)N)C(=O)N1CCC[C@H]1C(=O)N[C@@H](CCc1ccccc1)C(=O)N[C@H](C(=O)N[C@@H](C)C(=O)N[C@@H](CCCNC(=N)N)C(=O)N[C@@H](CCCNC(=N)N)C(=O)N[C@@H](Cc1c[nH]c2ccccc12)C(=O)N[C@@H](CC(C)C)C(=O)N[C@@H](C)C(=O)N[C@@H](CCCCN)C(=O)N[C@@H](CCCNC(=N)N)C(=O)NCC(=O)N[C@@H](CC(C)C)C(N)=O)[C@@H](C)O [compound 222] (Ac-RP[hPhe]TARRWLAKRGL-NH2) |  |  | MIC E. coli BW25113 (E. coli BW25113; BW25113): 12.5 µM (≈ 22.3 µg/mL) |
| CCCCC[C@H](NC(=O)[C@H](CCCCN)NC(=O)[C@H](C)NC(=O)[C@H](CC(C)C)NC(=O)[C@H](Cc1c[nH]c2ccccc12)NC(=O)[C@H](CCCNC(=N)N)NC(=O)[C@H](CCCNC(=N)N)NC(=O)[C@H](C)NC(=O)[C@@H](NC(=O)[C@H](CCSC)NC(=O)[C@@H]1CCCN1C(=O)[C@H](CCCNC(=N)N)NC(C)=O)[C@@H](C)O)C(=O)NCC(=O)N[C@@H](CC(C)C)C(N)=O [compound 224] (Ac-RPMTARRWLAK[Ahp(2)]GL-NH2) |  |  | MIC E. coli BW25113 (E. coli BW25113; Table 8): 100.0 µM (≈ 172 µg/mL) |
| CSCC[C@H](NC(=O)[C@H](CN)NC(=O)[C@H](CCCc1ccccc1)NC(=O)[C@@H]1CCCN1C(=O)[C@H](CCCNC(=N)N)NC(C)=O)C(=O)N[C@@H](CCCNC(=N)N)C(=O)N[C@@H](CCCNC(=N)N)C(=O)N[C@@H](Cc1ccc(-c2ccccc2)cc1)C(=O)N[C@@H](CC(C)C)C(=O)N[C@@H](C)C(=O)N[C@@H](CCCCN)C(=O)N[C@@H](CCCNC(=N)N)C(=O)NCC(=O)N[C@@H](CC(C)C)C(N)=O [compound 226] (Ac-RP[hhPhe][Dap]MRR[Bip]LAKRGL-NH2) |  |  | MIC E. coli BW25113 (E. coli BW25113; BW25113): 25.0 µM (≈ 47 µg/mL) |
| CSCC[C@H](NC(=O)[C@H](CN)NC(=O)[C@H](CCCc1ccccc1)NC(=O)[C@@H]1CCCN1C(=O)[C@H](CCCNC(=N)N)NC(C)=O)C(=O)N[C@@H](CCCNC(=N)N)C(=O)N[C@@H](CCCNC(=N)N)C(=O)N[C@@H](Cc1c[nH]c2ccccc12)C(=O)N[C@@H](CC(C)C)C(=O)N[C@@H](C)C(=O)N[C@@H](CCCCN)C(=O)N[C@@H](CCCNC(=N)N)C(=O)NCC(=O)N[C@@H](CC(C)C)C(N)=O [compound 227] (Ac-RP[hhPhe][Dap]MRRWLAKRGL-NH2) |  |  | MIC E. coli BW25113 (E. coli BW25113; BW25113): 50.0 µM (≈ 92.1 µg/mL) |
| Ac-APMTARRFLEKHGL-NH2 [compound 16] | >800 | 100 |  |
| Ac-FPMTARRFLEKHGL-NH2 [compound 17] | >800 | 200 |  |
| Ac-KPMTARRFLEKWGLLR-NH2 [compound 61] |  | 12.5 | MIC A. baumannii (A. baumannii): 40 µM; MIC R. aeruginosa (P. aeruginosa): 400 µM |
| Ac-RPMTARRFLEKHGL-NH2 [compound 19] | >800 | 25 |  |
| Ac-RPMTWRRWLEKHGL-NH2 [compound 204] |  |  | MIC E. coli BW25113 (E. coli BW25113; Table 8): 200.0 µM |
| Ac-RPMTWRRWLEKYGL-NH2 [compound 205] |  |  | MIC E. coli BW25113 (E. coli BW25113; BW25113): 200.0 µM |
| Ac-WPMTARRFLEKHGL-NH2 [compound 18] | >800 | 200 |  |
| Ac-YAMTARRFLEKHGL-NH2 [compound 20] | >800 | 400 |  |
| Ac-YPATARRFLEKHGL-NH2 [compound 21] | >800 | 800 |  |
| Ac-YPFTARRFLEKHGL-NH2 [compound 23] | >800 | 400 |  |
| Ac-YPFTFRRFLEKWGLLR-NH2 [compound 79] |  |  | MIC E. coli BW25113 (E. coli BW25113; Table 8): 200.0 µM |
| Ac-YPLTARRFLEKHGL-NH2 [compound 22] | >800 | 400 |  |
| Ac-YPMAARRFLEKHGL-NH2 [compound 25] | >800 | 800 |  |
| Ac-YPMKFRRFLEKWGLLR-NH2 [compound 107] |  |  | MIC E. coli BW25113 (E. coli BW25113; Table 8): 12.5 µM |
| Ac-YPMRFRRFLEKWGLLR-NH2 [compound 108] |  |  | MIC E. coli BW25113 (E. coli BW25113; Table 8): <12.5 µM |
| Ac-YPMSARRFLAKWGLLR-NH2 [compound 15] | 800 | <12.5 |  |
| Ac-YPMSARRFLEKHGL-NH2 [compound 26] | >800 | 800 |  |

| Compound | MIC S. aureus USA300 (S. aureus USA300) [µM] | MIC E. coli imp4213 (E. coli imp4213) [µM] | also measured |
| --- | --- | --- | --- |
| Ac-YPMTAKRFLEKHGL-NH2 [compound 30] | >800 | 800 |  |
| Ac-YPMTARAFLEKHGL-NH2 [compound 31] | >800 | 800 |  |
| Ac-YPMTARHFLEKHGL-NH2 [compound 33] | >800 | 800 |  |
| Ac-YPMTARKFLEKHGL-NH2 [compound 32] | >800 | 100 |  |
| Ac-YPMTARRFLAKHGL-NH2 [compound 36] | >800 | 100 |  |
| Ac-YPMTARRFLEAHGL-NH2 [compound 39] | >800 | 200 |  |
| Ac-YPMTARRFLEHHGL-NH2 [compound 40] | >800 | 400 |  |
| Ac-YPMTARRFLEKAGL-NH2 [compound 42] | >800 | 800 |  |
| Ac-YPMTARRFLEKHGGL-NH2 [compound 101] |  |  | MIC E. coli BW25113 (E. coli BW25113; Table 8): 50.0 µM |
| Ac-YPMTARRFLEKHGW-NH2 [compound 47] | >800 | 200 |  |
| Ac-YPMTARRFLEKKGL-NH2 [compound 46] | >800 | 100 |  |
| Ac-YPMTARRFLEKRGL-NH2 [compound 45] | >800 | 100 |  |
| Ac-YPMTARRFLEKWGLLR-NH2 [compound 14] | 800 | 25 |  |
| Ac-YPMTARRFLEKYGL-NH2 [compound 43] | >800 | 100 |  |
| Ac-YPMTARRFLERHGL-NH2 [compound 41] | >800 | 100 |  |
| Ac-YPMTARRFLRKHGL-NH2 [compound 38] | >800 | 100 |  |
| Ac-YPMTARRFLSKHGL-NH2 [compound 37] | >800 | 400 |  |
| Ac-YPMTARRFWEKHGL-NH2 [compound 35] | >800 | 400 |  |
| Ac-YPMTARRWLEKHGL-NH2 [compound 34] | >800 | 25 |  |
| Ac-YPMTRRRFLEKHGL-NH2 [compound 29] | >800 | 800 |  |
| Ac-YPMTWRRFLEKHGL-NH2 [compound 28] | >800 | 50 |  |
| Ac-YPMTYRRFLEKHGL-NH2 [compound 27] | >800 | 400 |  |
| Ac-YPWTARRFLEKHGL-NH2 [compound 24] | >800 | 400 |  |
